Values of other authors, collected in PubChem BioAssay AID1259409 (Chemical Carcinogenesis Research Information System (CCRIS), 2018).

Tested on: rodent chemically induced tumor inhibition, incidence and multiplicity
Experiment: CCRIS tumor inhibitor studies
Details: Route [Inhibitor]: ORAL, Species: RAT

Cn1c(=O)c2c(ncn2C)n(C)c1=O
tumour outcome (control, treated, inhibition, significance) (Carcinogen: 1,2-DIMETHYLHYDRAZINE, 540-73-8, Dose [Inhibitor]: 0, 600 MG/L IN DRINKING WATER FOR DURATION OF STUDY BEGINNING 7 D PRIOR TO CARCINOGEN TREATMENT (STUDY DURATION: 8 MO), Strain/Sex: BD6/MALE, Target Tissue: Type of Lesion: INTESTINE: TUMOR, Dose [Carcinogen]: 20 MG/KG BW 1/WK FOR 20 WK, Promoter: NONE USED): 100%, 100%, 0%, not significant | tumour outcome (control, treated, inhibition, significance) (Carcinogen: 2-ACETYLAMINOFLUORENE, 53-96-3, Dose [Inhibitor]: 0, 0.1% IN DRINKING WATER FOR FIRST 12 WK (STUDY DURATION: 30 WK), Strain/Sex: ACI/MALE, Target Tissue: Type of Lesion: LIVER: HEPATOCELLULAR ADENOMA, Dose [Carcinogen]: 0.02% IN DIET FOR FIRST 12 WK): 100%, 78%, 22%, not significant | tumour outcome (control, treated, inhibition, significance) (Carcinogen: 2-ACETYLAMINOFLUORENE, 53-96-3, Dose [Inhibitor]: 0, 0.1% IN DRINKING WATER FOR FIRST 12 WK (STUDY DURATION: 30 WK), Strain/Sex: ACI/MALE, Target Tissue: Type of Lesion: LIVER: HEPATOCELLULAR CARCINOMA, Dose [Carcinogen]: 0.02% IN DIET FOR FIRST 12 WK): 44%, 22%, 50%, not significant | tumour outcome (control, treated, inhibition, significance) (Carcinogen: 2-ACETYLAMINOFLUORENE, 53-96-3, Dose [Inhibitor]: 0, 0.1% IN DRINKING WATER FOR FIRST 12 WK (STUDY DURATION: 30 WK), Strain/Sex: ACI/MALE, Target Tissue: Type of Lesion: SMALL INTESTINE: ADENOCARCINOMA, Dose [Carcinogen]: 0.02% IN DIET FOR FIRST 12 WK): 9%, 17%, -89%, not significant | tumour outcome (control, treated, inhibition, significance) (Carcinogen: 2-ACETYLAMINOFLUORENE, 53-96-3, Dose [Inhibitor]: 0, 0.15% IN DRINKING WATER FOR FIRST 12 WK (STUDY DURATION: 30 WK), Strain/Sex: ACI/MALE, Target Tissue: Type of Lesion: LIVER: HEPATOCELLULAR ADENOMA, Dose [Carcinogen]: 0.02% IN DIET FOR FIRST 12 WK): 100%, 63%, 37%, p<0.01 | tumour outcome (control, treated, inhibition, significance) (Carcinogen: 2-ACETYLAMINOFLUORENE, 53-96-3, Dose [Inhibitor]: 0, 0.15% IN DRINKING WATER FOR FIRST 12 WK (STUDY DURATION: 30 WK), Strain/Sex: ACI/MALE, Target Tissue: Type of Lesion: LIVER: HEPATOCELLULAR CARCINOMA, Dose [Carcinogen]: 0.02% IN DIET FOR FIRST 12 WK): 44%, 8%, 82%, p<0.02 | tumour outcome (control, treated, inhibition, significance) (Carcinogen: 2-ACETYLAMINOFLUORENE, 53-96-3, Dose [Inhibitor]: 0, 0.15% IN DRINKING WATER FOR FIRST 12 WK (STUDY DURATION: 30 WK), Strain/Sex: ACI/MALE, Target Tissue: Type of Lesion: SMALL INTESTINE: ADENOCARCINOMA, Dose [Carcinogen]: 0.02% IN DIET FOR FIRST 12 WK): 9%, 13%, -44%, not significant | tumour outcome (control, treated, inhibition, significance) (Carcinogen: 2-ACETYLAMINOFLUORENE, 53-96-3, Dose [Inhibitor]: 0, 0.2% IN DRINKING WATER FOR FIRST 12 WK (STUDY DURATION: 30 WK), Strain/Sex: ACI/MALE, Target Tissue: Type of Lesion: LIVER: HEPATOCELLULAR ADENOMA, Dose [Carcinogen]: 0.02% IN DIET FOR FIRST 12 WK): 100%, 35%, 65%, p<0.001 | tumour outcome (control, treated, inhibition, significance) (Carcinogen: 2-ACETYLAMINOFLUORENE, 53-96-3, Dose [Inhibitor]: 0, 0.2% IN DRINKING WATER FOR FIRST 12 WK (STUDY DURATION: 30 WK), Strain/Sex: ACI/MALE, Target Tissue: Type of Lesion: LIVER: HEPATOCELLULAR CARCINOMA, Dose [Carcinogen]: 0.02% IN DIET FOR FIRST 12 WK): 44%, 5%, 89%, p<0.02 | tumour outcome (control, treated, inhibition, significance) (Carcinogen: 2-ACETYLAMINOFLUORENE, 53-96-3, Dose [Inhibitor]: 0, 0.2% IN DRINKING WATER FOR FIRST 12 WK (STUDY DURATION: 30 WK), Strain/Sex: ACI/MALE, Target Tissue: Type of Lesion: SMALL INTESTINE: ADENOCARCINOMA, Dose [Carcinogen]: 0.02% IN DIET FOR FIRST 12 WK): 9%, 10%, -11%, not significant | tumour outcome (control, treated, inhibition, significance) (Carcinogen: 2-AMINO-1-METHYL-6-PHENYL-1H-IMIDAZO[4,5-B]PYRID INE, 105650-23-5, Dose [Inhibitor]: 0, 0.1% IN DRINKING WATER FOR 52 WK (STUDY DURATION: 52 WK), Strain/Sex: F344/FEMALE, Target Tissue: Type of Lesion: MAMMARY GLAND: FIBROADENOMA, Dose [Carcinogen]: 0.02% IN THE DIET FOR 52 WK, Promoter: NONE USED): 2/20 (10%), 0/20 (0%), 100%, not significant | tumour outcome (control, treated, inhibition, significance) (Carcinogen: 2-AMINO-1-METHYL-6-PHENYL-1H-IMIDAZO[4,5-B]PYRIDINE, 105650-23-5, Dose [Inhibitor]: 0, 0.1% IN DRINKING WATER FOR 52 WK (STUDY DURATION: 52 WK), Strain/Sex: F344/FEMALE, Target Tissue: Type of Lesion: MAMMARY GLAND: ADENOCARCINOMA, Dose [Carcinogen]: 0.02% IN THE DIET FOR 52 WK, Promoter: NONE USED): 8/20 (40%), 2/20 (10%), 75%, p< 0.05 | tumour outcome (control, treated, inhibition, significance) (Carcinogen: 2-AMINO-1-METHYL-6-PHENYLIMIDAZO[4,5-B]PYRIDINE [105650-23-5], Dose [Inhibitor]: 0.1% IN DRINKING WATER FOR 54 WK (STUDY DURATION: 54 WK), Strain/Sex: F344/DUCRJ/FEMALE, Target Tissue: Type of Lesion: COLON: ADENOMA OR ADENOCARCINOMA, Dose [Carcinogen]: 0.02% IN DIET FOR 54 WK (STUDY DURATION: 54 WK), Promoter: NONE): 3/20 (15%), 15/20 (75%), -400%, p<0.01
